Read-outs that look alike come from different tables or passages of the source. Where a SMILES comes first, the peptide text is derived from it. Where no end group is shown, it is not given here. [ ]: non-standard residue; d: D form. The star is where a group is joined. Nva = CCC[C@H](N)C(=O)O; Ms = CS(=O)(=O)*; CH2Cl = ClC*

Assay [1] deals with T1, urokinase (Homo sapiens, UniProt P00749). The conditions noted are these: cited from earlier work.
Assay [2] addresses T1, urokinase. As to the kind of experiment: Amidolytic activity of urokinase, substrate S-2444. The assay is classed as biochemical. The conditions noted are these: Ki calculated from IC50 by Cheng-Prusoff; triplicate; n.i. = no effect at maximum concentration 20 mM; read-out: Ki ± SD Urokinase S-2444. The protocol:
Determination of amidolytic activity was performed as previously described (Okada et al. [1988]). The detailed description of the method is given below. The buffer and the enzyme solution included: • tris buffer—0.6 ml (pH 8.8),
enzyme: urokinase (50 U/ml),
synthetic substrate: S-2444 (0.1 ml, 3 mM); • (b) tris buffer—0.5 ml (pH 8.4),
(§1) Buffer and 0.1 ml of enzyme solution was added to 0.2 ml of examined compound dissolved in 0.15 M NaCl (1–17) (as control 0.15 M NaCl). The mixture was incubated for 3 min at 37 °C, then the synthetic substrate was added. After 20 min of incubation, the reaction was stopped by adding 0.1 ml of 50 % acetic acid, and the absorbance of the released p-nitroaniline was measured at 405 nm (Spekol 1300, AnalyticJena). Every value represents the average of the triplicate determination. IC50 value was considered as the concentration of the inhibitor, which decreased the absorbance at 405 nm by 50 %, compared with the absorbance measured under the same conditions without the inhibitor. Ki was calculated from IC50 based on Cheng–Prusoff equation (Cheng and Prusoff [1973]).

A further assay deals with T2, plasmin (Homo sapiens, UniProt P00747).
T2 construct: converts the pro-enzyme plasminogen into its active form plasmin; purchased Chromogenix (Milano, Italy)
T2 sequence (P00747 581-810 limits assumed): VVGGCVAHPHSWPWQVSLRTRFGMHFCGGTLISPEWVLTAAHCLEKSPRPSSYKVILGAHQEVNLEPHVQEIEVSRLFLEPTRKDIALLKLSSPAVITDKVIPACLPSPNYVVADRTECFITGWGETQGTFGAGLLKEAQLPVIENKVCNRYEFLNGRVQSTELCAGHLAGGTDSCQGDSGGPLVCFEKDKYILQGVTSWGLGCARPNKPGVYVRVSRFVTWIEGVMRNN
T2 sequence (P00747 97-580 partner limits assumed): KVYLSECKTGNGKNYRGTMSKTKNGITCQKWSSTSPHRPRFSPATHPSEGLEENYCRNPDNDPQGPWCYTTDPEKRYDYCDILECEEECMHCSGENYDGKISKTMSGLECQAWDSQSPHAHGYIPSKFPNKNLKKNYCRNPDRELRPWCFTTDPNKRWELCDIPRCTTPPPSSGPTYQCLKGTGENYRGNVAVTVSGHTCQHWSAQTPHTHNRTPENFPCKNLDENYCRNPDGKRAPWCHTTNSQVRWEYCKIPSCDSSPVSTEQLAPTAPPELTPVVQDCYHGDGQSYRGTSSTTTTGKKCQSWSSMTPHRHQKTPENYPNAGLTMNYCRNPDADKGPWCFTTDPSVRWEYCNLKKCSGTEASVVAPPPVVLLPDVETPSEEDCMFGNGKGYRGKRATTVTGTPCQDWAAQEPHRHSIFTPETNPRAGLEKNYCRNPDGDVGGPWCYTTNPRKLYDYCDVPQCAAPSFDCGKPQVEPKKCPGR
As to the kind of experiment: Amidolytic activity of plasmin, substrate S-2251. The assay is classed as biochemical. As to conditions: Ki calculated from IC50 by Cheng-Prusoff; triplicate; read-out: Ki ± SD Plasmin S-2251. The protocol:
(§2) Determination of amidolytic activity was performed as previously described (Okada et al. [1988]). The detailed description of the method is given below. The buffer and the enzyme solution included: • tris buffer—0.6 ml (pH 8.8), […]
as §1, with “synthetic substrate: S-2238 (0.2 ml, 0.75 mM); • (c) tris buffer—0.5 ml (pH 7.4), enzyme: plasmin (0.4 U/ml), synthetic substrate: S-2251 (0.2 ml, 3 mM); • (d) […] buffer—0.5 ml (pH 7.5), Buffer” for “Buffer”

Another assay concerns the target thrombin (Bos taurus, UniProt P00735). As to the kind of experiment: Amidolytic activity of thrombin, substrate S-2238. The assay is classed as biochemical. The conditions noted are these: Ki calculated from IC50 by Cheng-Prusoff, n.i. = no effect at maximum concentration 20 mM, read-out: Ki ± SD Thrombin. The protocol:
as §2
as §1, with “synthetic substrate: S-2444 (0.1 ml, 3 mM); • (b) tris buffer—0.5 ml (pH 8.4), enzyme: thrombin (1 U/ml), synthetic substrate: S-2238 (0.2 ml, 0.75 mM); • (c) tris buffer—0.5 ml (pH 7.4), Buffer” for “Buffer”

For another assay, the system named is MDA-MB-231 cells. As to conditions: 24 h.
The next assay concerns DLD cells. The conditions noted are these: 24 h.
For assay [3], the target named is T1, urokinase. The assay is described as follows: Urokinase inhibition, literature or earlier data. As to conditions: author's unpublished data, corresponding to earlier IC50 values. Format: biochemical.
Where [4] appears, read: ref Markowska et al. [2008], read-out: IC50 urokinase.

The term Ki denotes a measure of affinity in units of concentration, obtained from inhibition or displacement. As to Glu-Gly-Arg-CH2Cl, the Ki at urokinase [1] (ref Lijnen et al. [1987]) is 5 µM.
As a reminder, the IC50 is the concentration at which inhibition is half-maximal. phenethylsulfonyl-D-Ser-Ala-Arg-H: the IC50 on urokinase [1] (ref Tamura et al. [2000], read-out: IC50 uPA) is 0.0031 µM.
Turning to `CC(C)c1cc(C(C)C)c(S(=O)(=O)N[C@H](CO)C(=O)NCC(=O)N[C@@H](CCCNC(=N)N)C(=O)O)c(C(C)C)c1` [Compound 11, 2,4,6-TriiPrPhSO2-D-Ser-Gly-Arg-OH], the Ki at urokinase [2] is 15.8 ± 1.27 µM; at plasmin, 89.1 ± 7.13 µM; on thrombin, over 20000 µM. For the same molecule, the IC50 with MDA-MB-231 cells came to 570 µM; in the assay with DLD cells, 110 µM.
Turning to H-D-Ser-NVa-Arg-OH, the inhibition constant Ki on urokinase [1] (ref Markowska et al. [2011]) was 0.85 µM.
For `CCC[C@H](NC(=O)[C@@H](CO)NS(C)(=O)=O)C(=O)N[C@@H](CCCNC(=N)N)C(=O)O` [Compound 15, CH3PhSO2-D-Ser-NVa-Arg-OH] (Ms-[dS]-[Nva]-Arg-OH; N-terminus and C-terminus assumed), the Ki on urokinase [2] is over 20000 µM; on plasmin, 167 ± 13.4 µM; on thrombin, over 20000 µM. Besides, the figures for the IC50 in the assay on MDA-MB-231 cells and in the assay with DLD cells were 650 µM and 270 µM, respectively.
In the case of `C[C@H](NC(=O)[C@@H](CO)NS(C)(=O)=O)C(=O)N[C@@H](CCCNC(=N)N)C(=O)NCCCCCN` [Compound 3, CH3PhSO2-D-Ser-Ala-Arg-NH-(CH2)5-NH2], the IC50 in the assay with MDA-MB-231 cells is 570 µM; with DLD cells it was 390 µM.
As for `CCC[C@H](NC(=O)[C@@H](CO)NS(=O)(=O)Cc1ccccc1)C(=O)N[C@@H](CCCNC(=N)N)C(=O)NCCCCCN` [Compound 7, PhCH2SO2-D-Ser-NVa-Arg-NH-(CH2)5-NH2], the Ki on urokinase [2] is over 20000 µM; at plasmin it was 112 ± 8.95 µM; on thrombin, over 20000 µM. The IC50 is 680 µM in the assay on MDA-MB-231 cells and 340 µM in the assay on DLD cells.
`CCC[C@H](NC(=O)[C@@H](CO)NS(=O)(=O)Cc1ccccc1)C(=O)N[C@@H](CCCNC(=N)N)C(=O)O` [Compound 13, PhCH2SO2-D-Ser-NVa-Arg-OH]: the Ki on urokinase [2] was over 20000 µM; on plasmin, 13.6 ± 1.09 µM; on thrombin, 0.82 ± 0.06 µM. Also, the concentration for half-maximal inhibition (IC50) came to 650 µM in the assay on MDA-MB-231 cells and 180 µM in the assay with DLD cells.
As to `N=C(N)NCCC[C@H](NC(=O)CNC(=O)[C@@H](CO)NS(=O)(=O)Cc1ccccc1)C(=O)O` [Compound 10, PhCH2SO2-D-Ser-Gly-Arg-OH], the values for the Ki at urokinase [2], on plasmin and on thrombin were 5.4 ± 0.43 µM, 103 ± 8.22 µM and 0.97 ± 0.08 µM, respectively. Also, the figures for the IC50 in the assay on MDA-MB-231 cells and in the assay on DLD cells were 640 µM and 5 µM, respectively.
For the molecule `CS(=O)(=O)N[C@H](CO)C(=O)NCC(=O)N[C@@H](CCCNC(=N)N)C(=O)NCCCCCN` [Compound 6, CH3PhSO2-D-Ser-Gly-Arg-NH-(CH2)5-NH2], the figures for the IC50 in the assay on MDA-MB-231 cells and in the assay with DLD cells were 450 µM and 260 µM, respectively.
For the molecule `CC(C)c1cc(C(C)C)c(S(=O)(=O)N[C@H](CO)C(=O)N[C@@H](C)C(=O)N[C@@H](CCCNC(=N)N)C(=O)NCCCCCN)c(C(C)C)c1` [Compound 2, 2,4,6-TriiPrPhSO2-D-Ser-Ala-Arg-NH-(CH2)5-NH2], the figures for the Ki at urokinase [2], at plasmin and at thrombin were over 20000 µM, 90.9 ± 7.27 µM and over 20000 µM, respectively. The IC50 worked out at 480 µM in the assay on MDA-MB-231 cells and 390 µM with DLD cells.
On to `CC(C)c1cc(C(C)C)c(S(=O)(=O)N[C@H](CO)C(=O)NCC(=O)N[C@@H](CCCNC(=N)N)C(=O)NCCCCCN)c(C(C)C)c1` [Compound 5, 2,4,6-TriiPrPhSO2-D-Ser-Gly-Arg-NH-(CH2)5-NH2], for which the results for the Ki on urokinase [2], at plasmin and at thrombin were 44.6 ± 3.57 µM, 56.4 ± 4.51 µM and over 20000 µM, respectively. Also, the IC50 in the assay on MDA-MB-231 cells was 510 µM; in the assay with DLD cells, 150 µM.
For `CCC[C@H](NC(=O)[C@@H](CO)NS(=O)(=O)c1c(C(C)C)cc(C(C)C)cc1C(C)C)C(=O)N[C@@H](CCCNC(=N)N)C(=O)NCCCCCN` [Compound 8, 2,4,6-TriiPrPhSO2-D-Ser-NVa-Arg-NH-(CH2)5-NH2], in that order: over 20000 µM, 52.7 ± 4.22 µM, over 20000 µM, 660 µM and 330 µM.
For `N=C(N)NCCC[C@H](NC(=O)CNC(=O)[C@@H](CO)NS(=O)(=O)Cc1ccccc1)C(=O)NCCCCCN` [Compound 4, PhCH2SO2-D-Ser-Gly-Arg-NH-(CH2)5-NH2], in that order: over 20000 µM, 58.2 ± 4.65 µM, over 20000 µM, 580 µM and 320 µM.
In the case of `CCC[C@H](NC(=O)[C@@H](CO)NS(C)(=O)=O)C(=O)N[C@@H](CCCNC(=N)N)C(=O)NCCCCCN` [Compound 9, CH3PhSO2-D-Ser-NVa-Arg-NH-(CH2)5-NH2], the IC50 in the assay with MDA-MB-231 cells was 620 µM; in the assay with DLD cells, 50 µM.
Consider α-tolyl-SO2-D-Ser-Ala-Arg-OH, for which the inhibition constant (Ki) on urokinase [1] (ref Markowska et al. [2010]) is 24 µM.
Regarding `CCC[C@H](NC(=O)[C@@H](CO)NS(=O)(=O)c1c(C(C)C)cc(C(C)C)cc1C(C)C)C(=O)N[C@@H](CCCNC(=N)N)C(=O)O` [Compound 14, 2,4,6-TriiPrPhSO2-D-Ser-NVa-Arg-OH], the IC50 with MDA-MB-231 cells worked out at 590 µM; in the assay on DLD cells it was 220 µM.
On to `C[C@H](NC(=O)[C@H](N)CO)C(=O)N[C@@H](CCCNC(=N)N)C(=O)O` [H-D-Ser-Ala-Arg-OH] (H-[dS]-Ala-Arg-OH), for which, on urokinase [3], the inhibition constant (Ki) came out at 180 µM. For the same molecule, at urokinase [1] (setting [4]), the IC50 is 2000 µM.
As for `CCC[C@H](NC(=O)[C@H](N)CO)C(=O)N[C@@H](CCCNC(=N)N)C(=O)NCCCCCN` [Compound 16, H-D-Ser-NVa-Arg-NH-(CH2)5-NH2], the Ki on urokinase [2] is over 20000 µM; at plasmin, 137 ± 11 µM; at thrombin, over 20000 µM. Further, the results for the concentration for half-maximal inhibition (IC50) in the assay with MDA-MB-231 cells and with DLD cells were 490 µM and 260 µM, respectively.
As for `N=C(N)NCCC[C@H](NC(=O)CNC(=O)[C@H](N)CO)C(=O)NCCCCCN` [Compound 17, H-D-Ser-Gly-Arg-NH-(CH2)5-NH2], the Ki was over 20000 µM on urokinase [2], 139 ± 11.1 µM on plasmin and over 20000 µM on thrombin. The IC50 in the assay with MDA-MB-231 cells was found to be 510 µM; in the assay on DLD cells it was 250 µM.
H-D-Ser-Ala-Arg-NH-(CH2)5-NH2: the Ki at urokinase [1] (ref Markowska et al. [2010]) is 6.3 µM.
In turn, `N=C(N)NCCC[C@H](NC(=O)CNC(=O)[C@H](N)CO)C(=O)O` [H-D-Ser-Gly-Arg-OH] (H-[dS]-Gly-Arg-OH) registered an inhibition constant Ki on urokinase [3] of 90 µM. Further, at urokinase [1] (setting [4]), the IC50 is 1000 µM.
Regarding `C[C@H](NC(=O)[C@@H](CO)NS(=O)(=O)Cc1ccccc1)C(=O)N[C@@H](CCCNC(=N)N)C(=O)NCCCCCN` [Compound 1, PhCH2SO2-D-Ser-Ala-Arg-NH-(CH2)5-NH2], the Ki at urokinase [2] was over 20000 µM; on plasmin it was 2 ± 0.16 µM; at thrombin, over 20000 µM. The results for the IC50 in the assay with MDA-MB-231 cells and in the assay on DLD cells were 480 µM and 460 µM, respectively.

The values above are taken from PMC3726930, “Synthesis and Biological Activity of N-Sulfonyltripeptides with C-Terminal Arginine as Potential Serine Proteases Inhibitors” (International Journal of Peptide Research and Therapeutics, 2012).
